Experiments:
[1] = system: blackgrass; experiment: Soil treatment test for upland field; type: in vivo, Alopecurus aegualis; design: key: 0 = normal development, 5 = all killed; settings: 500 g/ha, 3 weeks, glass house 25° C.
Outline: (§1)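 Using a pre-emergence soil application at 500 g/ha, treated pots were held 3 weeks in a glass house averaging 25° C. Injury was graded on a 0–5 scale against non-treated pots; "-" marks entries not investigated.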

[2] = system: Large crabgrass; experiment: Foliar spread test for upland field; type: in vivo, Digitaria adscendens; design: key: 0 = normal development, 5 = all killed (6 ranks vs. untreated); settings: foliar spray, 500 ppm, 3 weeks, glass house 25° C.
Outline: (§2)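 Scores on a 0–5 scale (0 normal development, 5 all killed), relative to untreated controls, were taken 3 weeks post-treatment in a 25 °C glass house. Treatment was a uniform foliar spray at 500 ppm (0.5% surfactant) onto roughly 2-week-old soil-grown plants.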

[3] = system: barnyard grass; experiment: Soil treatment test for upland field; type: in vivo, Eschinochloa crusgalli; design: key: 0 = normal development, 5 = all killed; settings: 500 g/ha, 3 weeks, glass house 25° C.
Outline: as §1

[4] = system: wheat; experiment: Foliar spread test for upland field; type: in vivo; design: key: 0 = normal development, 5 = all killed (6 ranks vs. untreated); settings: foliar spray, 500 ppm, 3 weeks, glass house 25° C.
Outline: as §2

[5] = system: sugar beat; experiment: Foliar spread test for upland field; type: in vivo; design: key: 0 = normal development, 5 = all killed (6 ranks vs. untreated); settings: foliar spray, 500 ppm, 3 weeks, glass house 25° C.
Outline: as §2

[6] = system: corn; experiment: Foliar spread test for upland field; type: in vivo; design: key: 0 = normal development, 5 = all killed (6 ranks vs. untreated); settings: foliar spray, 500 ppm, 3 weeks, glass house 25° C.
Outline: as §2

[7] = system: solgum; experiment: Foliar spread test for upland field; type: in vivo; design: key: 0 = normal development, 5 = all killed (6 ranks vs. untreated); settings: foliar spray, 500 ppm, 3 weeks, glass house 25° C.
Outline: as §2

[8] = system: soybean; experiment: Foliar spread test for upland field; type: in vivo; design: key: 0 = normal development, 5 = all killed (6 ranks vs. untreated); settings: foliar spray, 500 ppm, 3 weeks, glass house 25° C.
Outline: as §2

[9] = system: cotton; experiment: Foliar spread test for upland field; type: in vivo; design: key: 0 = normal development, 5 = all killed (6 ranks vs. untreated); settings: foliar spray, 500 ppm, 3 weeks, glass house 25° C.
Outline: as §2

[10] = system: velvetleaf; experiment: Foliar spread test for upland field; type: in vivo, Abutilon theophrasti; design: key: 0 = normal development, 5 = all killed (6 ranks vs. untreated); settings: foliar spray, 500 ppm, 3 weeks, glass house 25° C.
Outline: as §2

[11] = system: barnyardgrjass; experiment: Foliar spread test for upland field; type: in vivo, Eschinochloa crusgalli; design: key: 0 = normal development, 5 = all killed (6 ranks vs. untreated); settings: foliar spray, 500 ppm, 3 weeks, glass house 25° C.
Outline: as §2

[12] = system: livid amaranth; experiment: Foliar spread test for upland field; type: in vivo, Amaranthus lividus; design: key: 0 = normal development, 5 = all killed (6 ranks vs. untreated); settings: foliar spray, 500 ppm, 3 weeks, glass house 25° C.
Outline: as §2

[13] = system: bulrush; experiment: Herbicidal test for paddy field; type: in vivo, Scrips juncoides; settings: 500 g/ha, dropwise addition to paddy water at 1.5 leaf stage of barnyard grass; glass house 25° C., 3 weeks; rank 0-5 vs non-treated district
Outline: (§3)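 Wettable-powder formulations in water with 0.05% surfactant were dripped onto flooded (3 cm) Ube alluvial-soil pots at 500 g/ha, applied at barnyard grass 1.5-leaf stage. Plants were kept in a glasshouse at 25° C. for 3 weeks. Damage was scored 0 (normal) to 5 (all killed) versus untreated plants.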

[14] = system: barnyard grass; experiment: Herbicidal test for paddy field; type: in vivo, Eschinochloa crusgalli; settings: 500 g/ha, dropwise addition to paddy water at 1.5 leaf stage of barnyard grass; glass house 25° C., 3 weeks; rank 0-5 vs non-treated district
Outline: as §3

[15] = system: morning glory; experiment: Soil treatment test for upland field; type: in vivo, Ipomoea spps.; design: key: 0 = normal development, 5 = all killed; settings: 500 g/ha, 3 weeks, glass house 25° C.
Outline: as §1

[16] = system: wheat; experiment: Soil treatment test for upland field; type: in vivo; design: key: 0 = normal development, 5 = all killed; settings: 500 g/ha, 3 weeks, glass house 25° C.
Outline: as §1

[17] = system: sugar beat; experiment: Soil treatment test for upland field; type: in vivo; design: key: 0 = normal development, 5 = all killed; settings: 500 g/ha, 3 weeks, glass house 25° C.
Outline: as §1

[18] = system: corn; experiment: Soil treatment test for upland field; type: in vivo; design: key: 0 = normal development, 5 = all killed; settings: 500 g/ha, 3 weeks, glass house 25° C.
Outline: as §1

[19] = system: solgum; experiment: Soil treatment test for upland field; type: in vivo; design: key: 0 = normal development, 5 = all killed; settings: 500 g/ha, 3 weeks, glass house 25° C.
Outline: as §1

[20] = system: soybean; experiment: Soil treatment test for upland field; type: in vivo; design: key: 0 = normal development, 5 = all killed; settings: 500 g/ha, 3 weeks, glass house 25° C.
Outline: as §1

[21] = system: annual bluegrass; experiment: Foliar spread test for upland field; type: in vivo, Poa annua; design: key: 0 = normal development, 5 = all killed (6 ranks vs. untreated); settings: foliar spray, 500 ppm, 3 weeks, glass house 25° C.
Outline: as §2

[22] = system: morning glory; experiment: Foliar spread test for upland field; type: in vivo, Ipomoea spps.; design: key: 0 = normal development, 5 = all killed (6 ranks vs. untreated); settings: foliar spray, 500 ppm, 3 weeks, glass house 25° C.
Outline: as §2

[23] = system: green foxtail; experiment: Soil treatment test for upland field; type: in vivo, Setaria viridis; design: key: 0 = normal development, 5 = all killed; settings: 500 g/ha, 3 weeks, glass house 25° C.
Outline: as §1

[24] = system: annual bluegrass; experiment: Soil treatment test for upland field; type: in vivo, Poa annua; design: key: 0 = normal development, 5 = all killed; settings: 500 g/ha, 3 weeks, glass house 25° C.
Outline: as §1

[25] = system: common lambsquarters; experiment: Foliar spread test for upland field; type: in vivo, Chenopodium album; design: key: 0 = normal development, 5 = all killed (6 ranks vs. untreated); settings: foliar spray, 500 ppm, 3 weeks, glass house 25° C.
Outline: as §2

[26] = system: blackgrass; experiment: Foliar spread test for upland field; type: in vivo, Alopecurus aegualis; design: key: 0 = normal development, 5 = all killed (6 ranks vs. untreated); settings: foliar spray, 500 ppm, 3 weeks, glass house 25° C.
Outline: as §2

[27] = system: Cyperus serotinus Rottb.; experiment: Herbicidal test for paddy field; type: in vivo; settings: 500 g/ha, dropwise addition to paddy water at 1.5 leaf stage of barnyard grass; glass house 25° C., 3 weeks; rank 0-5 vs non-treated district
Outline: as §3

[28] = system: green foxtail; experiment: Foliar spread test for upland field; type: in vivo, Setaria viridis; design: key: 0 = normal development, 5 = all killed (6 ranks vs. untreated); settings: foliar spray, 500 ppm, 3 weeks, glass house 25° C.
Outline: as §2

[29] = system: cotton; experiment: Soil treatment test for upland field; type: in vivo; settings: 500 g/ha, 3 weeks, glass house 25° C.
Description: (§4) The herbicidal effects are evaluated according to the following 6 ranks as compared with non-treated district. (0: normal development, 1: Less damaged, 2: Slightly damaged, 3: Moderately damaged, 4: Severely damaged, 5: All killed). Incidentally, “-” in the column means not investigated.
(§5) Wagner pots, each having an area of 1/5000 are, were packed with Ube soil (alluvial soil), and then each seed of corn, soybean, cotton, wheat, solgum, sugar beat, Large crabgrass, barnyard grass, green foxtail, blackgrass, annual bluegrass, common lambsquarters, livid amaranth, velvetleaf, morning glory, common Cocklebur (Xanthium strumarium) and sicklepod (Cassia obtusifolia) were planted and covered with soil.
(§6) Each wettable powder of the desired compounds (I) shown in Tables 1 to 21, 24, 25, 28 and 29 prepared in accordance with Example 2 was diluted with water containing a surfactant (0.05%) and uniformly sprayed on the surface of each soil so that an effective concentration of the compound (I) in each herbicide became 500 g/ha.
(§7) These plants were controlled in a glass house at an average temperature of 25° C. for 3 weeks, and then herbicidal effects thereof were investigated.
(§8) The herbicidal effects were evaluated according to the evaluation method described in the above (1).

[30] = system: Large crabgrass; experiment: Soil treatment test for upland field; type: in vivo, Digitaria adscendens; design: key: 0 = normal development, 5 = all killed; settings: 500 g/ha, 3 weeks, glass house 25° C.
Outline: as §1

[31] = system: velvetleaf; experiment: Soil treatment test for upland field; type: in vivo, Abutilon theophrasti; design: key: 0 = normal development, 5 = all killed; settings: 500 g/ha, 3 weeks, glass house 25° C.
Outline: as §1

[32] = system: livid amaranth; experiment: Soil treatment test for upland field; type: in vivo, Amaranthus lividus; design: key: 0 = normal development, 5 = all killed; settings: 500 g/ha, 3 weeks, glass house 25° C.
Outline: as §1

[33] = system: common lambsquarters; experiment: Soil treatment test for upland field; type: in vivo, Chenopodium album; design: key: 0 = normal development, 5 = all killed; settings: 500 g/ha, 3 weeks, glass house 25° C.
Outline: as §1

[34] = system: arrowhead; experiment: Herbicidal test for paddy field; type: in vivo, Sagittaria pygmaea; settings: 500 g/ha, dropwise addition to paddy water at 1.5 leaf stage of barnyard grass; glass house 25° C., 3 weeks; rank 0-5 vs non-treated district
Outline: as §3

[35] = system: Xanthium pensylvanicum; experiment: Foliar spread test for upland field; type: in vivo; design: key: 0 = normal development, 5 = all killed; settings: foliar spray, 500 ppm, 3 weeks, glass house 25° C.
Outline: as §2

[36] = system: Cassia obtusifolia; experiment: Foliar spread test for upland field; type: in vivo; design: key: 0 = normal development, 5 = all killed; settings: foliar spray, 500 ppm, 3 weeks, glass house 25° C.
Outline: as §2

[37] = system: sicklepod (Cassia obtusifolia); experiment: Soil treatment test for upland field; type: in vivo; settings: 500 g/ha, 3 weeks, glass house 25° C.
Description: as §4, §5, §6, §7, §8

[38] = system: common Cocklebur (Xanthium strumarium); experiment: Soil treatment test for upland field; type: in vivo; settings: 500 g/ha, 3 weeks, glass house 25° C.
Description: as §4, §5, §6, §7, §8

CC/C(=C\c1ccc(F)c(C(F)(F)F)c1)c1nc2cc(Cl)ccc2o1 [I-c-54, (E)-2-(5-chlorobenzoxazol-2-yl)-1-(4-fluoro-3-trifluoromethylphenyl)butene]
Effects Blackgrass [1]: 5 | Effects Large crabgrass [2]: 4 | Effects Barnyardgrass [3]: 5 | Effects Wheat [4]: 2 | Effects Sugar beat [5]: 5 | Effects Corn [6]: 3 | Effects Solgum [7]: 3 | Effects Soybean [8]: 4 | Effects Sotton [9]: 3 | Effects Velvetleaf [10]: 3 | Effects Barnyardgrass [11]: 2 | Effects Livid amaranth [12]: 5 | Effects Bulrush [13]: 3 | Effects Barnyardgrass [14]: 5 | Effects Morning glory [15]: 5 | Effects Wheat [16]: 1 | Effects Sugar beat [17]: 5 | Effects Corn [18]: 1 | Effects Solgum [19]: 2 | Effects Soybean [20]: 5 | Effects Annual bluegrass [21]: 4 | Effects Morning glory [22]: 3 | Effects Green foxtail [23]: 5 | Effects Annual bluegrass [24]: 5 | Effects Common lambsquarters [25]: 5 | Effects Blackgrass [26]: 4 | Effects Cyperus serotinus Rottb. [27]: 3 | Effects Green foxtail [28]: 4 | Effects Sotton [29]: 3 | Effects Large crabgrass [30]: 5 | Effects Velvetleaf [31]: 5 | Effects Livid amaranth [32]: 5 | Effects Common lambsquarters [33]: 5

FC(F)(F)c1cccc(Oc2cccc(-c3nc4ccccc4o3)n2)c1 [I-a-1]
Effects Blackgrass [1]: 4 | Effects Arrowhead [34]: 1 | Effects Large crabgrass [2]: 4 | Effects Barnyardgrass [3]: 4 | Effects Wheat [4]: 2 | Effects Sugar beat [5]: 4 | Effects Corn [6]: 2 | Effects Solgum [7]: 2 | Effects Soybean [8]: 5 | Effects Sotton [9]: 4 | Effects Velvetleaf [10]: 4 | Effects Barnyardgrass [11]: 3 | Effects Livid amaranth [12]: 5 | Effects Common Cocklebur [35]: 4 | Effects Sicklepod [36]: 5 | Effects Bulrush [13]: 2 | Effects Barnyardgrass [14]: 4 | Effects Morning glory [15]: 4 | Effects Wheat [16]: 1 | Effects Sugar beat [17]: 5 | Effects Corn [18]: 0 | Effects Solgum [19]: 2 | Effects Annual bluegrass [21]: 4 | Effects Morning glory [22]: 5 | Effects Green foxtail [23]: 5 | Effects Annual bluegrass [24]: 5 | Effects Common lambsquarters [25]: 5 | Effects Blackgrass [26]: 2 | Effects Cyperus serotinus Rottb. [27]: 2 | Effects Green foxtail [28]: 5 | Effects Sicklepod [37]: 3 | Effects Common Cocklebur [38]: 5 | Effects Large crabgrass [30]: 5 | Effects Velvetleaf [31]: 3 | Effects Livid amaranth [32]: 5 | Effects Common lambsquarters [33]: 5
